Experimental data: ChEMBL document CHEMBL1221172, “Identification of a specific inhibitor of the histone methyltransferase SU(VAR)3-9” (Nat Chem Biol, 2005)
pIC50: −log10 of the molar value. Active and inactive are the calls of the source. No cut-off for these calls is given here.

Experiments:
[1] = target: Histone-lysine N-methyltransferase Su(var)3-9 (Drosophila melanogaster) (UniProt P45975); settings: SL2, 0.5 uM
Description: Inhibition of SU(VAR)3-9 in Drosophila melanogaster SL2 cells assessed as inhibition of methylation at Lys36 in Histone H3 at 0.5 uM by MALDI-TOF MS

[2] = target: Histone-lysine N-methyltransferase Su(var)3-9 (Drosophila melanogaster) (UniProt P45975); settings: SL2, 0.5 uM; remark: listed apart in the source
Description: Inhibition of SU(VAR)3-9 in Drosophila melanogaster SL2 cells assessed as inhibition of methylation at Lys27 in Histone H3 at 0.5 uM by Western blot method

[3] = target: Histone-lysine N-methyltransferase Su(var)3-9 (Drosophila melanogaster) (UniProt P45975); settings: SL2, 0.5 uM; remark: listed apart in the source
Description: Inhibition of SU(VAR)3-9 in Drosophila melanogaster SL2 cells assessed as inhibition of methylation at Lys4in Histone H3 at 0.5 uM by Western blot method

SL-2 [4] = test: Cytotoxicity against Drosophila melanogaster SL-2 cells seeded at low density; type: cell-based
[5] = target: Histone-lysine N-methyltransferase Su(var)3-9 (Drosophila melanogaster) (UniProt P45975); settings: SL2, 0.5 uM; remark: listed apart in the source
Description: Inhibition of SU(VAR)3-9 in Drosophila melanogaster SL2 cells assessed as inhibition of methylation at Lys4in Histone H3 at 0.5 uM by MALDI-TOF MS

[6] = target: Histone-lysine N-methyltransferase Su(var)3-9 (Drosophila melanogaster) (UniProt P45975); settings: SL2, 0.5 uM; remark: listed apart in the source
Description: Inhibition of SU(VAR)3-9 in Drosophila melanogaster SL2 cells assessed as reduction of H3K9me2 at 0.5 uM after 5 days by MALDI-TOF MS seeded at 2.5 million cells/ml density

[7] = target: Histone-lysine N-methyltransferase Su(var)3-9 (Drosophila melanogaster) (UniProt P45975); settings: SL2, 0.5 uM; remark: listed apart in the source
Description: Inhibition of SU(VAR)3-9 in Drosophila melanogaster SL2 cells assessed as inhibition of methylation at Lys79in Histone H3 at 0.5 uM by Western blot method

[8] = target: T1, Histone-lysine N-methyltransferase Set8 (Drosophila melanogaster, UniProt Q9VFK6); test: Inhibition of Drosophila melanogaster PRSET2
T1 sequence (Q9VFK6 whole entry): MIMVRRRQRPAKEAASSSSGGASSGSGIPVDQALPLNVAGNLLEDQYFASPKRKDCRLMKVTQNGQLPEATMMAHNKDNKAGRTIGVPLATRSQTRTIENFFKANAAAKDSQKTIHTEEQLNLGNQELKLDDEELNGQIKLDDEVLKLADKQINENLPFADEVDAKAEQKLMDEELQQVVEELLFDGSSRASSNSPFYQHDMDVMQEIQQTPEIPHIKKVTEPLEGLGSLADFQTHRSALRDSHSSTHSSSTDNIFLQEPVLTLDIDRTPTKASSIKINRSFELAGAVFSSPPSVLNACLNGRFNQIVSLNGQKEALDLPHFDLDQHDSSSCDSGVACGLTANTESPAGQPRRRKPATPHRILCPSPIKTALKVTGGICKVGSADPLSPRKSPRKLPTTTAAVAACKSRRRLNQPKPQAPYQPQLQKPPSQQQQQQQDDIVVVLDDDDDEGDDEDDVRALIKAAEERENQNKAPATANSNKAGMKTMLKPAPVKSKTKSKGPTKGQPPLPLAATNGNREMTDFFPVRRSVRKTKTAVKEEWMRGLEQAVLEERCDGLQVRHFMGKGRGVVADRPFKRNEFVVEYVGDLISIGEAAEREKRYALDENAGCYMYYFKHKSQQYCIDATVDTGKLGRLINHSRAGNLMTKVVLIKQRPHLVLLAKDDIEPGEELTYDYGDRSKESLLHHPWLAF

[9] = target: Histone-lysine N-methyltransferase Su(var)3-9 (Drosophila melanogaster, UniProt P45975); test: Inhibition of Drosophila melanogaster SU(VAR)3-9
[10] = target: Histone-lysine N-methyltransferase Su(var)3-9 (Drosophila melanogaster) (UniProt P45975); settings: SL2, 0.5 uM; remark: listed apart in the source
Description: Inhibition of SU(VAR)3-9 in Drosophila melanogaster SL2 cells assessed as inhibition of methylation at Lys79in Histone H3 at 0.5 uM by MALDI-TOF MS

[11] = target: Histone-lysine N-methyltransferase Su(var)3-9 (Drosophila melanogaster) (UniProt P45975); settings: SL2, 0.5 uM; remark: listed apart in the source
Description: Inhibition of SU(VAR)3-9 in Drosophila melanogaster SL2 cells assessed as reduction of H3K9me3 at 0.5 uM by immunostaining method

[12] = target: T2, Histone-lysine N-methyltransferase, H3 lysine-9 specific dim-5 (Neurospora crassa, UniProt Q8X225); test: Inhibition of Neurospora crassa DIM5
T2 sequence (Q8X225 whole entry): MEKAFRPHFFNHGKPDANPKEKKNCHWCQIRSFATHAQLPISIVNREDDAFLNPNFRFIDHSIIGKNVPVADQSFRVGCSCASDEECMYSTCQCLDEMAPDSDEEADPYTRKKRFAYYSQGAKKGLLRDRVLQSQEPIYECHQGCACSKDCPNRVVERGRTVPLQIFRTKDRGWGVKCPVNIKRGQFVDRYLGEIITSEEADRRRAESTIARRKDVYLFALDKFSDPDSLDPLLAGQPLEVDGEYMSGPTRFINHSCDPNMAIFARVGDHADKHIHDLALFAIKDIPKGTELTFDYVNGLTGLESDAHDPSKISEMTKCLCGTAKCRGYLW

SL-2 [13] = test: Cytotoxicity against Drosophila melanogaster SL-2 cells seeded at high density assessed as growth retardation for 24 to 48 hrs up to 0.5 uM; type: cell-based
[14] = target: Histone-lysine N-methyltransferase Su(var)3-9 (Drosophila melanogaster) (UniProt P45975); settings: SL2, 0.1 uM
Description: Inhibition of SU(VAR)3-9 in Drosophila melanogaster SL2 cells assessed as reduction of H3K9me2 at 0.1 uM after 5 days by MALDI-TOF MS seeded at 2.5 million cells/ml density

[15] = target: Histone-lysine N-methyltransferase Su(var)3-9 (Drosophila melanogaster) (UniProt P45975); settings: SL2, 0.5 uM; remark: listed apart in the source
Description: Inhibition of SU(VAR)3-9 in Drosophila melanogaster SL2 cells assessed as inhibition of methylation at Lys27 in Histone H3 at 0.5 uM by MALDI-TOF MS

[16] = target: Histone-lysine N-methyltransferase E(z) (Drosophila melanogaster, UniProt P42124); test: Inhibition of Drosophila melanogaster histone-lysine N-methyl-transferase E(z)
[17] = target: T3, Histone-lysine N-methyltransferase EHMT2 (Mus musculus, UniProt Q9Z148); test: Inhibition of mouse G9a
T3 sequence (Q9Z148 whole entry): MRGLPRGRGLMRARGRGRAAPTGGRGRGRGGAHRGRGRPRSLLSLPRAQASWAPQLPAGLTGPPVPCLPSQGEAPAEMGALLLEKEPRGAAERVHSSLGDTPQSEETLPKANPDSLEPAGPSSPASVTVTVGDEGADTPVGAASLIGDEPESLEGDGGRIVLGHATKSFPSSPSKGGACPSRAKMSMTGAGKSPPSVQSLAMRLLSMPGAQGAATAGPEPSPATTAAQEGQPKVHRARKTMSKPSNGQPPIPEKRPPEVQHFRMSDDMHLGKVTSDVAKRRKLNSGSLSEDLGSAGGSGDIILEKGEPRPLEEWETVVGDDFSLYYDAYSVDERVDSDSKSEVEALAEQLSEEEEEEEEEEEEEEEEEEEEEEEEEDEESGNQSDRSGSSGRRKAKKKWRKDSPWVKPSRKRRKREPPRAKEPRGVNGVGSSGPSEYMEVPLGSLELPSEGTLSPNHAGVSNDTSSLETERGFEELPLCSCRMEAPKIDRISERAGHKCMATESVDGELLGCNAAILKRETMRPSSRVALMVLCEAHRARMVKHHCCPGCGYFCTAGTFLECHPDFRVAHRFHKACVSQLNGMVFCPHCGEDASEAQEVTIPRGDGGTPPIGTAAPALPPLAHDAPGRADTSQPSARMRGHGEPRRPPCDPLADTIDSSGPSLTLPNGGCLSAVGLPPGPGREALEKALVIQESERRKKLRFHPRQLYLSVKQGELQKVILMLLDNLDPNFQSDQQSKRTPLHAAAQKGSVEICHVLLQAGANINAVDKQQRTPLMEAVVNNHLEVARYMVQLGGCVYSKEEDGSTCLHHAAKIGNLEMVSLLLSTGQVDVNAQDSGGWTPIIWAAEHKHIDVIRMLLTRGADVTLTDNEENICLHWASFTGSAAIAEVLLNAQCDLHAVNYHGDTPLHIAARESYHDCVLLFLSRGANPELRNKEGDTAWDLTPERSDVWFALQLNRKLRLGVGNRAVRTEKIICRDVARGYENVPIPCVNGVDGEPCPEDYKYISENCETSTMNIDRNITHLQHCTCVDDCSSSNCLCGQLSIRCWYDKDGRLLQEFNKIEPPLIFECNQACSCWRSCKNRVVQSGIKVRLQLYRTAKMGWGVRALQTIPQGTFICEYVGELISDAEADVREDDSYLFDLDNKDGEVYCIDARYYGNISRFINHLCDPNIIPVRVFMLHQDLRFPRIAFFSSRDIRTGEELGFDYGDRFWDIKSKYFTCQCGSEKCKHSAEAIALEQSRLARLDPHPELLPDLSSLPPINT

[18] = Inhibition of Drosophila melanogaster SET7/9
[19] = target: Histone-lysine N-methyltransferase Su(var)3-9 (Drosophila melanogaster) (UniProt P45975); settings: SL2, 0.5 uM; remark: listed apart in the source
Description: Inhibition of SU(VAR)3-9 in Drosophila melanogaster SL2 cells assessed as inhibition of methylation at Lys36 in Histone H3 at 0.5 uM by Western blot method

[20] = Inhibition of human SU(VAR)3-9

Chain of Histone-lysine N-methyltransferase Su(var)3-9 (Drosophila melanogaster) (P45975 whole entry): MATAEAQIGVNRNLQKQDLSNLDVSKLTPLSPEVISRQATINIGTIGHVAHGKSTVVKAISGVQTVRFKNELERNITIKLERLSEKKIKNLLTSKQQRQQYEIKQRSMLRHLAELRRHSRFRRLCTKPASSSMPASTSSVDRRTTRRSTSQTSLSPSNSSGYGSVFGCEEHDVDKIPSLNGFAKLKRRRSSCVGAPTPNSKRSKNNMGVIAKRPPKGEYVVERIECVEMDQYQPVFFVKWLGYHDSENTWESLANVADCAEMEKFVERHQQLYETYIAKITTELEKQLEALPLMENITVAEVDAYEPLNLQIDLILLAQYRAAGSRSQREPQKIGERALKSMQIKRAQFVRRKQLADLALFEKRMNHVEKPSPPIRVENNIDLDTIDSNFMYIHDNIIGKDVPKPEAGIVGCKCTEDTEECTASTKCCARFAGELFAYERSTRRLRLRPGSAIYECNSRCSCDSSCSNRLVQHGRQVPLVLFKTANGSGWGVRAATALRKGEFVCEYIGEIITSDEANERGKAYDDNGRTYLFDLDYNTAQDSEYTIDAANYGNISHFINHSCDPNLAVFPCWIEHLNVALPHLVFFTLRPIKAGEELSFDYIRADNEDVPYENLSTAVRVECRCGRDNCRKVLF
Chain of Histone-lysine N-methyltransferase Su(var)3-9 (P45975 whole entry): as above
Chain of Histone-lysine N-methyltransferase E(z) (P42124 whole entry): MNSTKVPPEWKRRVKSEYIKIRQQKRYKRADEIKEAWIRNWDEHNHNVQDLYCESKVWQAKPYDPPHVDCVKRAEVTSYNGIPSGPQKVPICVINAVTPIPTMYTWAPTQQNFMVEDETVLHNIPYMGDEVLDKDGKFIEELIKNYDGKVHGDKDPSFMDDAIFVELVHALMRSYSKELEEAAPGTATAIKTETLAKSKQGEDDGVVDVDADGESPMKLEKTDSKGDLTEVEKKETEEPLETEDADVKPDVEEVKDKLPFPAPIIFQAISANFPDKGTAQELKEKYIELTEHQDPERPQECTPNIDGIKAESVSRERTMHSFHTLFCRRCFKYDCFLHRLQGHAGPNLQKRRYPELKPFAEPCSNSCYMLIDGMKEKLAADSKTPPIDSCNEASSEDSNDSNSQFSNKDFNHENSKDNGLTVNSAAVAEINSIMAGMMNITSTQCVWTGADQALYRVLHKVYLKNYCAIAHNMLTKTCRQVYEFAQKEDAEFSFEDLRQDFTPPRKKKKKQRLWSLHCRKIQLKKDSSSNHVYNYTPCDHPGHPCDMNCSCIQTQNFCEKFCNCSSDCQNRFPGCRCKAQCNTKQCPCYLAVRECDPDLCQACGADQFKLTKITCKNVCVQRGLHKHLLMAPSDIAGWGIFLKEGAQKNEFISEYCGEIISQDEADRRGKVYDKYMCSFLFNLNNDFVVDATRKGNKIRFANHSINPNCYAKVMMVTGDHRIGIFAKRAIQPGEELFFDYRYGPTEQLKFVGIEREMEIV

Q: Which inhibition [1] does the source give for CN1C(=O)[C@@]23C[C@]4([C@]56C[C@@]78SS[C@@](CO)(C(=O)N7[C@H]5Nc5ccccc56)N(C)C8=O)c5ccccc5N[C@@H]4N2C(=O)[C@]1(CO)SS3 [CHAETOCIN] here?
A: inactive

Q: What about the inhibition [2] of the same compound?
A: inactive

Q: And the inhibition [3]?
A: inactive

Q: And the Activity (SL-2 [4])?
A: Toxic

Q: And the inhibition [5]?
A: inactive

Q: What about the inhibition [6] of the same compound?
A: Active

Q: What about the inhibition [7] of the same compound?
A: inactive

Q: And the pIC50 [8]?
A: < 3.74

Q: And the pIC50 [9]?
A: 6.22

Q: What about the inhibition [10] of the same compound?
A: inactive

Q: And the inhibition [11]?
A: Active

Q: What about the pIC50 [12] of the same compound?
A: 5.52

Q: What about the Activity (SL-2 [13]) of the same compound?
A: Non-toxic

Q: What about the inhibition [14] of the same compound?
A: Active

Q: And the inhibition [15]?
A: inactive

Q: What about the pIC50 [16] of the same compound?
A: < 4.05

Q: And the pIC50 [17]?
A: 5.60

Q: What about the pIC50 [18] of the same compound?
A: < 3.74

Q: And the inhibition [19]?
A: inactive

Q: And the pIC50 [20]?
A: 6.10
